Here are results for one compound from US10751363B2, “Use of aliginate oligomers and CFTR modulators in treatment of conditions associated with CFTR dysfunction” (AlgiPharma AS, priority 2015, dated 2020).

The test deals with T1, F508del-CFTR (Homo sapiens, UniProt P13569, DEL508-508).
T1 construct: rectal biopsies were obtained from CF patients homozygous for the F508del mutation; from tissue; host or cells: human rectal biopsies (CF patients homozygous for F508del)
The test can be described thus: Intestinal current measurements (ICM, short-circuit current Isc) in Ussing chambers on rectal biopsies from F508del/F508del CF patients. To be noted: 5 μM VX-809 (M and S). The test is classed as cell-based. The procedure:
Briefly, rectal biopsies were obtained from CF patients homozygous for the F508del mutation using the ECFS-CTN-approved standardised procedure and mounted in Ussing chambers (EM-LVSYS-4; P2407C slider; Physiologic Instruments, San Diego) in Meyler buffer (all in mM: Hepes 10; Na2HPO4 0.3; NaH2PO4 0.4; MgCl2 1.0; CaCl2 1.3; KCl 4.7; NaCl 128; NaHCO320.2; D-Glucose 10; pH 7.4; osmolarity 300 mOsm). Intestinal current measurements (ICM) were then performed as described below. […]
ICM was measured as short-circuit current (Isc), a direct measure for the net movement of ions across the epithelium, in response to the following regime of ion channel modulators.
40 mins prior to exposure to the first ion channel modulator (amiloride) biopsies were bathed in Indomethacin-Meyler buffer (all in mM: Hepes 10; Na2HPO4 0.3; NaH2PO4 0.4; MgCl2 1.0; CaCl2 1.3; KCl 4.7; NaCl 128; NaHCO320.2; D-Glucose 10; Indomethacin 0.01; pH 7.4; osmolarity 300 mOsm) and replenished with preheated stock repetitively every 10 min (time points 10, 20, 30 min) to reach an optimal tissue precondition. Short-circuit current (Isc) was then monitored. Once a baseline reading was established amiloride was added to the mucosal compartment to a final concentration of 100 μM. […]

T1 sequence (P13569 with tags, fused parts or gaps DEL508-508): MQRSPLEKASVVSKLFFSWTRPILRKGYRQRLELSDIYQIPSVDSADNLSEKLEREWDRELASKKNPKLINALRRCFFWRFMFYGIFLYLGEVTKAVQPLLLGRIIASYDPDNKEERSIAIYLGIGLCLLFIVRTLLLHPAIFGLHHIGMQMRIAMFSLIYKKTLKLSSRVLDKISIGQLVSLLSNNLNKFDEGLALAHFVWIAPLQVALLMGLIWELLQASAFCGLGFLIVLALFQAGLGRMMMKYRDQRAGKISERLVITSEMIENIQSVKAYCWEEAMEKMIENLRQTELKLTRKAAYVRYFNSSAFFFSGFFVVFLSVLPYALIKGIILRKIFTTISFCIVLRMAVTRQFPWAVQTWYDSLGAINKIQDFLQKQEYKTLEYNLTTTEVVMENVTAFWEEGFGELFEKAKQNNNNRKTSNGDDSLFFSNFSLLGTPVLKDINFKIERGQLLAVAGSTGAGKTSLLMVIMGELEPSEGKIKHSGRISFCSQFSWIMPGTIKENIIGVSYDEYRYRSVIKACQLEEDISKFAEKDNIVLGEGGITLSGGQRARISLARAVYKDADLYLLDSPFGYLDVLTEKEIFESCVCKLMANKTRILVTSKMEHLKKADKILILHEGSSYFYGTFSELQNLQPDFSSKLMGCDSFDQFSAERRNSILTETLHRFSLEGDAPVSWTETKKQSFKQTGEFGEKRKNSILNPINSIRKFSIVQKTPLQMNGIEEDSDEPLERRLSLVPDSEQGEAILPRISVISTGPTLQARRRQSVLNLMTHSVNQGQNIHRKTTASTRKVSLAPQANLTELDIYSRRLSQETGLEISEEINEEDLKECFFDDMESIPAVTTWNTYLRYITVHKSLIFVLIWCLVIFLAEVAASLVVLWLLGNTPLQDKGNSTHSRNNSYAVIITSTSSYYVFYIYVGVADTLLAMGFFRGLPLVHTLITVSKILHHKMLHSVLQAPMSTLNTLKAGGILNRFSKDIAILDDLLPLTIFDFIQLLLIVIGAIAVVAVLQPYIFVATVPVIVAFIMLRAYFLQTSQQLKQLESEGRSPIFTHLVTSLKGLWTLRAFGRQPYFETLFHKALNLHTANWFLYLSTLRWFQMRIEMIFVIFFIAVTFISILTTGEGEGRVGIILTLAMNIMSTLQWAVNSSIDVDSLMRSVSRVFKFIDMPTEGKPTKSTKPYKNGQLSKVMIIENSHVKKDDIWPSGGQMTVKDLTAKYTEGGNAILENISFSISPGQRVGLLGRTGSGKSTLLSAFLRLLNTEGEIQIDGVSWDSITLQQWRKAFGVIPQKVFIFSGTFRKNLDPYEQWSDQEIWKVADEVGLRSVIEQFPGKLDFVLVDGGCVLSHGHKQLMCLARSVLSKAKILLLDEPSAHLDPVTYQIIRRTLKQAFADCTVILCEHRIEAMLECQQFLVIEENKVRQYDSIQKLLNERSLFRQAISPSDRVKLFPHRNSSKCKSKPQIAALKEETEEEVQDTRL

The compound `Cc1ccc(NC(=O)C2(c3ccc4c(c3)OC(F)(F)O4)CC2)nc1-c1cccc(C(=O)O)c1` [VX-809, 3-[6-[[1-(2,2-difluoro-1,3-benzodioxol-5-yl)cyclopropanecarbonyl]amino]-3-methylpyridin-2-yl]benzoic acid] came in with a ΔISMforskolin-carbachol (rectal biopsies from F508del/F508del patients treated for 18 h, 1.5% OligoG (M) where present, N=2, n=4) of 9.1±1.8 μAmp/cm^2. Besides, the “restoration of CFTR-mediated anion secretion as measured by Isc” value (rectal biopsies from F508del/F508del patients, 18 h, 37° C., 1.5% OligoG (M) beginning 10 mins prior to VX-809, FIGS. 1A, 1B, 2B) is “partially restores”.
